The nature of series [1]: Cytotoxicity against C57BL/6J mouse peritoneal macrophages assessed as reduction of cell viability at 10 uM incubated for 24 hrs in presence of LPS by MTT assay. The format is cell-based, Peritoneal macrophage. On the technique in general: Tetrazolium assays rely on reduction of a dye to a coloured formazan, in cell work by metabolically active cells.
The subject of a further series is Peritoneal macrophage. Description: Inhibition of LPS-induced NO production in C57BL/6J mouse peritoneal macrophages at 10 uM measured after 24 hrs in presence of LPS by Griess reagent based assay relative to control. The format is functional. A general note: Griess reagent forms a coloured azo dye with nitrite.
The nature of series [2]: Inhibition of mouse CTLL-2 cells activity at 10 uM incubated for 24 hrs. It counts as functional.
Series [3] in a line: Inhibition of mouse CTLL-2 cells activity incubated for 24 hrs. It counts as functional, cell-based.

What is called inhibition is the change of the read-out against control, counted positive when it falls. In the case of `C/C=C/C=C/C(=O)Oc1c(OC)ccc2c1[C@@]13CCN(C)[C@@H](C2)[C@H]1C=C(OC)C(=O)C3`, the inhibition at 24 h, 10 µM in series [1] turned out to be 0.3%. Moreover, the inhibition at 10 µM is 46.9% in the series on Peritoneal macrophage and 14.3% in series [2].

As to `COc1ccc2c(c1OC(=O)/C=C/c1ccccc1)[C@@]13CCN(C)[C@@H](C2)[C@H]1C[C@@H](OC)C(=O)C3`, the inhibition at 24 h, 10 µM in series [1] amounted to 4.8%. Also, the inhibition at 10 µM with Peritoneal macrophage was 57.4%; in series [2] it was 11.6%.

For `CCCCCCCCCCCCCC(=O)OCc1cc(OC)c(OC(=O)CCCCCCCCCCCCC)c2c1C[C@H]1[C@H]3C=C(OC)C(=O)C[C@@]23CCN1C`, in series [1], the inhibition at 24 h, 10 µM was determined as 2.5%. The inhibition at 10 µM is 10.1% in the series on Peritoneal macrophage and -0.9% in series [2].

For `CCCCCCCCCCCCCCCC(=O)Oc1c(OC)ccc2c1[C@@]13CCN(C)[C@@H](C2)[C@H]1C[C@@H](OC)C(=O)C3`, in series [1], the inhibition at 24 h, 10 µM was found to be 1.7%. For the same compound, the values for the inhibition at 10 µM (in the series on Peritoneal macrophage; in series [2]) were 93.5% and 45.3%, respectively.

The IC50 is the midpoint of a concentration-inhibition curve. A lower IC50 goes with higher potency. With `C=CCCCCCCCCC(=O)Oc1c(OC)ccc2c1[C@@]13CCN(C)[C@@H](C2)[C@H]1C=C(OC)C(=O)C3`, the inhibition at 24 h, 10 µM in series [1] was found to be 8.8%. In addition, the inhibition at 10 µM was 94% in the series on Peritoneal macrophage and 52.8% in series [2]. This compound also had an IC50 in series [3] of 7.6 µM.

With `C/C=C/C=C/C(=O)OCc1cc(OC)c(OC(=O)/C=C/C=C/C)c2c1C[C@H]1[C@H]3C=C(OC)C(=O)C[C@@]23CCN1C`, the inhibition at 24 h, 10 µM in series [1] is 6.1%. The values for the inhibition at 10 µM (in the series on Peritoneal macrophage; in series [2]) were 90.8% and 6.2%, respectively.

Consider `C/C=C/C=C/C(=O)Oc1c(OC)cc(C=O)c2c1[C@@]13CCN(C)[C@@H](C2)[C@H]1C=C(OC)C(=O)C3`, for which, in series [1], the inhibition at 24 h, 10 µM stood at 1.4%. The inhibition at 10 µM in the series on Peritoneal macrophage was 46%; in series [2] it was 14%.

`COC1=C[C@@H]2[C@@H]3Cc4ccc(OC)c(OC(=O)c5cccnc5)c4[C@]2(CCN3C)CC1=O`: the inhibition at 24 h, 10 µM in series [1] is 0.8%. For the same compound, the inhibition at 10 µM with Peritoneal macrophage was 14%; in series [2], 3.2%.

In the case of `C/C=C/C=C/C(=O)Oc1c(OC)ccc2c1[C@@]13CCN(C)[C@@H](C2)[C@H]1C[C@@H](OC)C(=O)C3`, the inhibition at 24 h, 10 µM in series [1] is 5.1%. Also, the inhibition at 10 µM in the series on Peritoneal macrophage was determined as 40.7%; in series [2] it was 1.1%.

For the compound `COC1=C[C@@H]2[C@@H]3Cc4c(C=O)cc(OC)c(OC(=O)/C=C/c5ccccc5)c4[C@]2(CCN3C)CC1=O`, the inhibition at 24 h, 10 µM in series [1] was found to be 0.6%. Further, the results for the inhibition at 10 µM (in the series on Peritoneal macrophage; in series [2]) were 21.6% and 4.7%, respectively.

Take `CCCCCCCC/C=C/CCCCCCCCCCCC(=O)Oc1c(OC)ccc2c1[C@@]13CCN(C)[C@@H](C2)[C@H]1C=C(OC)C(=O)C3`: the inhibition at 24 h, 10 µM in series [1] turned out to be 0.4%. For the same compound, the inhibition at 10 µM in the series with Peritoneal macrophage was 3.5%; in series [2] it was 32.6%.

Take `COc1ccc2c(c1O)[C@@]13CCN(C)[C@@H](C2)[C@H]1C[C@@H](OC)C(=O)C3`: in series [1], the inhibition at 24 h, 10 µM was found to be 6.5%. The inhibition at 10 µM in the series with Peritoneal macrophage stood at 6.5%; in series [2], 5.8%.

`C=CCCCCCCCCC(=O)OCc1cc(OC)c(OC(=O)CCCCCCCCC=C)c2c1C[C@H]1[C@H]3C=C(OC)C(=O)C[C@@]23CCN1C`: the inhibition at 24 h, 10 µM in series [1] worked out at 9.3%. Besides, the inhibition at 10 µM in the series on Peritoneal macrophage was -0.9%; in series [2] it was 33.9%.

For `COC1=C[C@@H]2[C@@H]3Cc4c(C=O)cc(OC)c(O)c4[C@]2(CCN3C)CC1=O`, the inhibition at 24 h, 10 µM in series [1] was 2.5%. In addition, the inhibition at 10 µM with Peritoneal macrophage was determined as 4.2%; in series [2], 3.5%.

Consider `CCCCCCCCCCCC(=O)Oc1c(OC)cc(C=O)c2c1[C@@]13CCN(C)[C@@H](C2)[C@H]1C=C(OC)C(=O)C3`, for which the inhibition at 24 h, 10 µM in series [1] came to 0%. The inhibition at 10 µM in the series with Peritoneal macrophage was determined as 2.2%; in series [2], 25.2%.

Take `CCCCCCCCCCCCCCCC(=O)Oc1c(OC)cc(C=O)c2c1[C@@]13CCN(C)[C@@H](C2)[C@H]1C=C(OC)C(=O)C3`: the inhibition at 24 h, 10 µM in series [1] is -1.9%. In addition, the inhibition at 10 µM is 21% with Peritoneal macrophage and 32.2% in series [2].

As to `CCCCCCCC/C=C/CCCCCCCCCCCC(=O)OCc1cc(OC)c(OC(=O)CCCCCCCCCCC/C=C/CCCCCCCC)c2c1C[C@H]1[C@H]3C=C(OC)C(=O)C[C@@]23CCN1C`, the inhibition at 24 h, 10 µM in series [1] came out at 0.2%. In addition, the results for the inhibition at 10 µM (with Peritoneal macrophage; in series [2]) were 1.1% and 6.7%, respectively.

Take `COc1ccc2c(c1OC(C)=O)[C@@]13CCN(C)[C@@H](C2)[C@H]1C[C@@H](OC)C(=O)C3`: the inhibition at 24 h, 10 µM in series [1] amounted to 3.2%. Further, the inhibition at 10 µM came out at 5.6% in the series with Peritoneal macrophage and 12.5% in series [2].

`COc1ccc2c(c1OC(=O)c1cccnc1)[C@@]13CCN(C)[C@@H](C2)[C@H]1C[C@@H](OC)C(=O)C3`: in series [1], the inhibition at 24 h, 10 µM is 3.1%. The inhibition at 10 µM turned out to be 11.2% in the series on Peritoneal macrophage and 9.1% in series [2].

`COC1=C[C@@H]2[C@@H]3Cc4c(CO)cc(OC)c(O)c4[C@]2(CCN3C)CC1=O`: the inhibition at 24 h, 10 µM in series [1] worked out at 1.2%. In addition, the inhibition at 10 µM amounted to 3.6% with Peritoneal macrophage and 6.1% in series [2].

Take `CCCCCCCC/C=C/CCCCCCCCCCCC(=O)Oc1c(OC)cc(C=O)c2c1[C@@]13CCN(C)[C@@H](C2)[C@H]1C=C(OC)C(=O)C3`: the inhibition at 24 h, 10 µM in series [1] amounted to 0.5%. Moreover, the inhibition at 10 µM is 18.6% with Peritoneal macrophage and 29.6% in series [2].

`C=CCCCCCCCCC(=O)Oc1c(OC)cc(C=O)c2c1[C@@]13CCN(C)[C@@H](C2)[C@H]1C=C(OC)C(=O)C3`: in series [1], the inhibition at 24 h, 10 µM was found to be 1.3%. In addition, the inhibition at 10 µM with Peritoneal macrophage was 11.6%; in series [2] it was 23.4%.

Turning to `CCCCCCCCCCCC(=O)OCc1cc(OC)c(OC(=O)CCCCCCCCCCC)c2c1C[C@H]1[C@H]3C=C(OC)C(=O)C[C@@]23CCN1C`, in series [1], the inhibition at 24 h, 10 µM stood at 6.2%. The inhibition at 10 µM in the series on Peritoneal macrophage stood at 3.4%; in series [2] it was 6.8%.

For `CCCCCCCCCCCCCCCC(=O)OCc1cc(OC)c(OC(=O)CCCCCCCCCCCCCCC)c2c1C[C@H]1[C@H]3C=C(OC)C(=O)C[C@@]23CCN1C`, the inhibition at 24 h, 10 µM in series [1] was 5.3%. In addition, the inhibition at 10 µM in the series with Peritoneal macrophage is -2.4%; in series [2], 20.5%.

`COC1=C[C@@H]2[C@@H]3Cc4ccc(OC)c(OC(=O)/C=C/c5ccccc5)c4[C@]2(CCN3C)CC1=O`: in series [1], the inhibition at 24 h, 10 µM is -3.3%. Also, the values for the inhibition at 10 µM (in the series with Peritoneal macrophage; in series [2]) were 61.1% and 5.4%, respectively.

As to `COC1=C[C@@H]2[C@@H]3Cc4c(C=O)cc(OC)c(OC(C)=O)c4[C@]2(CCN3C)CC1=O`, in series [1], the inhibition at 24 h, 10 µM was found to be 0.2%. The results for the inhibition at 10 µM (with Peritoneal macrophage; in series [2]) were 0.6% and 10.3%, respectively.

Consider `C/C=C/C[C@@H](C)[C@@H](O)[C@H]1C(=O)N[C@@H](CC)C(=O)N(C)CC(=O)N(C)[C@@H](CC(C)C)C(=O)N[C@@H](C(C)C)C(=O)N(C)[C@@H](CC(C)C)C(=O)N[C@@H](C)C(=O)N[C@H](C)C(=O)N(C)[C@@H](CC(C)C)C(=O)N(C)[C@@H](CC(C)C)C(=O)N(C)[C@@H](C(C)C)C(=O)N1C` [CYCLOSPORINE], for which, in series [2], the inhibition at 10 µM turned out to be 96.8%.

Source of the values: ChEMBL document CHEMBL4828748, “Design, synthesis, and pharmacological evaluation of sinomenine derivatives on rings A and C: Novel compounds screening for aplastic anemia targeting on cytotoxic T lymphocyte” (Eur J Med Chem, 2021).
